Measured values from PubChem BioAssay (NCI).
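96-well plates; 48 h exposure; 5 concentrations. Endpoints by linear interpolation between flanking doses. Not reached: highest tested concentration assigned. Here, GI50 denotes the concentration required for 50% inhibition of growth. TGI: total growth inhibition.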

Experiments:
Assay in all cases: growth of human tumour cells (NCI), 48 h; in the data active means GI50 below about 0.43 µM; inactive means the rest
[1] = system: NCI-H23 lung
[2] = system: NCI-H460 lung
[3] = system: NCI/ADR-RES ovarian
[4] = system: OVCAR-3 ovarian
[5] = system: OVCAR-4 ovarian
[6] = system: OVCAR-5 ovarian
[7] = system: OVCAR-8 ovarian
[8] = system: PC-3 prostate
[9] = system: RPMI-8226 leukemia
[10] = system: RXF 393 renal
[11] = system: SF-268 CNS
[12] = system: SF-295 CNS
[13] = system: SF-539 CNS
[14] = system: SK-MEL-2 melanoma
[15] = system: SK-MEL-28 melanoma
[16] = system: SK-MEL-5 melanoma
[17] = system: SK-OV-3 ovarian
[18] = system: SN12C renal
[19] = system: SNB-19 CNS
[20] = system: SNB-75 CNS
[21] = system: SR leukemia
[22] = system: SW-620 colon
[23] = system: T-47D breast
[24] = system: TK-10 renal
[25] = system: U251 CNS
[26] = system: UACC-257 melanoma
[27] = system: UACC-62 melanoma
[28] = system: UO-31 renal

COc1ccc2c(c1)OCC1c3cc(O)ccc3OC21 (stereo unspecified)
> 100 µM: TGI [1] | TGI [2] | TGI [3] | TGI [4] | TGI [5] | TGI [6] | TGI [7] | TGI [8] | TGI [9] | TGI [10] | TGI [13] | TGI [14] | TGI [15] | TGI [16] | TGI [17] | TGI [18] | TGI [19] | TGI [20] | TGI [21] | TGI [22] | TGI [24] | TGI [25] | TGI [26] | TGI [27] | TGI [28]
90.9 µM: TGI [12]
65.4 µM: TGI [23]
74 µM: TGI [11]
inactive: GI50 [1] 30.1 µM | GI50 [2] 25 µM | GI50 [3] 33.2 µM | GI50 [4] 27 µM | GI50 [5] 28.1 µM | GI50 [6] 39.5 µM | GI50 [7] > 100 µM | GI50 [8] 34.4 µM | GI50 [9] 32.8 µM | GI50 [10] 72.6 µM | GI50 [11] 11 µM | GI50 [12] 9.91 µM | GI50 [13] 54.5 µM | GI50 [14] > 100 µM | GI50 [15] > 100 µM | GI50 [16] 33 µM | GI50 [17] 63.2 µM | GI50 [18] 73.3 µM | GI50 [19] 52.1 µM | GI50 [20] 34 µM | GI50 [21] 46.3 µM | GI50 [22] > 100 µM | GI50 [23] 16.2 µM | GI50 [24] 38.9 µM | GI50 [25] 54.9 µM | GI50 [26] 78.3 µM | GI50 [27] 35.9 µM | GI50 [28] 24.3 µM
